Where two headings read alike, the source gives them in different places.
Assays:
[1] = Metabolic stability in liver microsomes, dog; type: in vitro ADME; settings: % remaining at 1 hour; 1 μM
Procedure: Metabolic stability profiling of the compounds was performed in liver microsomes. In this assay, test compound is incubated with liver microsomes in the presence of NADPH for 2 time points at 37° C. At the end of incubation, reaction is quenched with acetonitrile containing internal standard and the parent compound remaining is determined by LC-MS/MS. Conditions used in the assay are summarized below. […], 37° C. • Test concentration: 1 μM in 0.02% DMSO at pH 7.4 (n=2) • NADPH concentration in assay: 1 mM • Liver microsome protein concentration in assay: 0.5 mg/ml • Analysis: LC-MS/MS • Data reported: % Parent Compound Remaining (% PCR) • Reference compounds for high and low clearance are included • Species tested: mouse, rat, dog, monkey, and human

[2] = Brain free fraction by equilibrium dialysis in rat brain tissue homogenate; type: in vitro ADME; settings: 10% rat brain tissue homogenate, Tables 2 and 3
Procedure: (§1) The extent to which compounds modulate SK2 channels in vivo is expressed as % SK2 SC100, which is the ratio of the concentration of the drug free in the brain to the measured potency of the compound on the SK2 channel. It is calculated as follows: CFB=CMB×BFF, where CMB is the concentration of compound measured by liquid chromatography mass spectrometry from brains harvested immediately following tremor recording (Table 1, “Measured Brain Concentration”). CFB is the amount of free compound not complexed with protein and therefore free to interact with the SK2 channel (Table 1, “Calculated Free Brain Concentration”). BFF is average free fraction of compound as measured by equilibrium dialysis in separate experiments (1 uM test concentration incubated in 10% rat brain tissue homogenate for 5 hours at 37° C.) (Table 1, “Brain Free Fraction”). Free drug in brain available to interact with SK2 channels (CFB) is arrived at by multiplying the measured total brain level (CMB) by the average free fraction (BFF).

hERG = molecular target: T1, hERG (Homo sapiens, UniProt Q12809); assay: Cardiac potassium channel hERG assay, whole-cell patch clamp in HEK-293 cells; type: cell-based; settings: HEK-293 cells stably transfected with hERG; read-out: hERG inhibition (IC50)
T1 construct: host or cells: HEK-293
T1 sequence (Q12809 whole entry): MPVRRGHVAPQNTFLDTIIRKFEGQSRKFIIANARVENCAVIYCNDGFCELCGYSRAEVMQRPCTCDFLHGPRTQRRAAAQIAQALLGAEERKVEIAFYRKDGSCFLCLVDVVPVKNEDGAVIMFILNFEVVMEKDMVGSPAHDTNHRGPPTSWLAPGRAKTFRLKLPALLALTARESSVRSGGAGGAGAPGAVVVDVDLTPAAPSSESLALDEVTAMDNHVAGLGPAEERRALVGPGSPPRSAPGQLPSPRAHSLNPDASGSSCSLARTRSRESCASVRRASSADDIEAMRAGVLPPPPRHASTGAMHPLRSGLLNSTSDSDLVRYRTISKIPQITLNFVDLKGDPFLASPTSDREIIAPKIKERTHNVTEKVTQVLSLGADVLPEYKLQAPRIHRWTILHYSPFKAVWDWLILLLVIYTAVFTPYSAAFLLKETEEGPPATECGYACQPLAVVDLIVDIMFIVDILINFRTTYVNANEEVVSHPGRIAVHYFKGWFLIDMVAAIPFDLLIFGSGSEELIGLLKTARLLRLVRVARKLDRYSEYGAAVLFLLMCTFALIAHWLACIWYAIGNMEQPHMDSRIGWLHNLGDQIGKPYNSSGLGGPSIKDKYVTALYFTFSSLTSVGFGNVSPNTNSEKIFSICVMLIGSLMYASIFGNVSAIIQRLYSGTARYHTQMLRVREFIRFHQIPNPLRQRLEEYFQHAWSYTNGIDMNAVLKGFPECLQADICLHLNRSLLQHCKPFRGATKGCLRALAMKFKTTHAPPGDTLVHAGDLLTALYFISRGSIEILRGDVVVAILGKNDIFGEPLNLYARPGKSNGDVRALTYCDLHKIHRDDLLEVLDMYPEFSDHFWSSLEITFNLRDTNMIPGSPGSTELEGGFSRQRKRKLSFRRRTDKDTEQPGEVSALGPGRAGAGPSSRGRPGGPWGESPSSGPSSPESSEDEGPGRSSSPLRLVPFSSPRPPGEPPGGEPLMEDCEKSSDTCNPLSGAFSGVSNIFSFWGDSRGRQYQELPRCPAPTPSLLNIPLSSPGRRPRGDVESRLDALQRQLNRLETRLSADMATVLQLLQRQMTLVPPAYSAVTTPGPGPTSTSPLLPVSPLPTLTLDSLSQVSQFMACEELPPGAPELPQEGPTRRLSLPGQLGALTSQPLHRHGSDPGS
Procedure: Compounds were tested in a cardiac potassium channel hERG assay. hERG is responsible for a rapid delayed rectifier current (IKr) in human ventricles. Inhibition of IKr is the most common cause of cardiac action potential prolongation by non-cardiac drugs. See e.g., Brown, A. M. and Rampe, D. (2000). Drug-induced long QT syndrome: is HERG the root of all evil? Pharmaceutical News 7, 15-20.
HEK-293 cells were stably transfected with hERG cDNA. Stable transfectants were selected by coexpression with the G418-resistance gene incorporated into the expression plasmid. Selection pressure was maintained by including G418 in the culture medium. Cells were cultured in Dulbecco's Modified Eagle Medium/Nutrient Mixture F-12 (D-MEM/F-12) supplemented with 10% fetal bovine serum, 100 U/mL penicillin G sodium, 100 μg/mL streptomycin sulfate and 500 μg/mL G418. Cell culture records are kept on file at Charles River Laboratories. […]
Onset and steady state inhibition of hERG current was measured using a pulse pattern with fixed amplitudes (conditioning prepulse: +20 mV for 2 s; test pulse: −50 mV for 2 s) repeated at 10 s intervals, from a holding potential of −80 mV. Peak tail current was measured during the 2 s step to −50 mV.
One test article concentration was applied to each cell (n=3). Peak current was measured during the test ramp. […] Peak current was measured until a new steady state was achieved.

Purkinje neurons = assay: Purkinje cell firing irregularity in ex vivo cerebellar slices from SCA2 58Q transgenic mice; type: cell-based, mouse; settings: bath application of 1 or 3 μM; slices from eleven-month old SCA2 58Q mice; P<0.05; FIG. 3
Excerpt: The difference in ISI CV between wild-type (N=8) and SCA2 58Q (N=11) mice is illustrated in FIG. 3 (P<0.005).

harmaline induced tremor = assay: Harmaline induced tremor, tremor events by forepaw transmitter band; type: in vivo, rat
Procedure: Immediately following harmaline injection, animals were placed in the tremor quantification apparatus and tremor events were quantified for 60 minutes. A tremor event signal was generated when a small metal transmitter band fitted to the right forepaw of the animal moved within the electromagnetic field generated by a loop antenna within the testing apparatus. Outputs from the amplifier were digitized at a sampling rate of 1,000 Hz and the signal was processed and analyzed using LabView software (National Instruments). To minimize signal from ambulatory and grooming behavior, the signal was filtered with a 128-ms unweighted moving average filter, and events with amplitudes>0.5 V and lasting>300 ms in duration were counted as a tremor event. Data were analyzed in one-minute bins over the course of the test and presented as the sum of tremor events over the entire 60 minute test.

harmaline-induced tremor = assay: Harmaline-induced whole body tremor, force-plate accelerometer (Tremor Monitor); type: in vivo
Procedure: Whole body tremor was measured by a San Diego Instruments Tremor Monitor (San Diego, Calif., USA). […] Tremor was measured for 30 minutes following harmaline administration, and data were analyzed by fast Fourier transform and reported as a frequency power spectrum. Harmaline induced a significant increase in the power spectrum in a band of frequencies between 10 and 14 Hz. […] Data were further analyzed by calculating the percent Motion Power (% MP), defined as the power in the 9-13 Hz band divided by the total power across the spectrum (0-30 Hz) multiplied by 100.

[3] = Brain concentration by LC-MS from brains harvested after tremor recording; type: in vivo; settings: Sprague Dawley, rat, oral, 30 mg/Kg
Procedure: as §1
The amount of free compound is then expressed in terms of its potency against the SK2 channel as follows: % SK2 SC100=CFB/SK2 SC100×100, where SK2 SC100 (Table 1, “SK2 SC100”) is the measured value of potency of the compound on SK2 channels and % SK2 SC100 (Table 1, “% SK2 SC100”) is the free brain concentration (CFB) normalized to SK2 SC100.

With `Cc1cc(NC2CCCCC2)nc(-n2nc(C)cc2C)n1` [Comparator A, reference compound] as the compound, how does the “Liver microsome stability, Dog” value [1] read?
Its value is 2%.

What about the fraction unbound at 5 h, 1 uM [2] of the same compound?
The fraction unbound at 5 h, 1 uM was 0.012.

And the IC50 (hERG)?
The IC50 was over 10 µM.

Which results are given for `Cc1ccn(-c2nc(NC3CCC(F)(F)CC3)cc(N3CCOCC3)n2)n1` [Compound 1, N-(4,4-difluorocyclohexyl)-2-(3-methyl-1H-pyrazol-1-yl)-6-morpholinopyrimidin-4-amine]?
Effect on coefficient of variation of the interspike interval (ISI CV) (Purkinje neurons): partially reversed the increase in ISI CV; Effect on harmaline induced tremor (sum of tremor events over 60 minutes) (harmaline induced tremor; 30 mg/Kg oral, 30 minutes prior to harmaline, male Sprague Dawley rats, FIG. 1): significant inhibition of tremors; Minimally Efficacious Dose (harmaline induced tremor; harmaline induced tremor, oral administration): 30 mg/kg; Effect on percent Motion Power (% MP) (harmaline-induced tremor; 3 mg/kg P<0.01, 10 and 30 mg/kg P<0.05, orally, FIG. 2): significantly reduced harmaline-induced tremor; Effect on harmaline-induced power spectrum, 10 to 14 Hz band (harmaline-induced tremor; 3, 10, and 30 mg/kg orally 30 minutes prior to 5 mg/kg harmaline i.p.): significantly reduced tremor; Liver microsome stability, Dog [1]: 54%; concentration at 90 min ([3]; CFB=CMB×BFF, read-out: Calculated Free Brain Concentration): 80 nM; concentration at 90 min ([3]; brains harvested immediately following tremor recording, minimally efficacious dose, read-out: Measured Brain Concentration): 1300 nM; fraction unbound at 5 h, 1 uM [2]: 0.061; IC50 (hERG): > 10 µM

Reference: US10351553B2, “Potassium channel modulators” (Cadent Therapeutics, Inc., priority 2017, dated 2019)
